Data: the NIST ThermoML archive (doi:10.1016/j.jct.2011.12.008)

Test: xn = mol fraction of the nth substance listed
Details: 101 kPa, Liquid; for viscosity: Capillary tube (Ostwald / Ubbelohde) method; for mass density: Vibrating tube method

CCCCCCn1cc[n+](C)c1.F[B-](F)(F)F [1-hexyl-3-methylimidazolium tetrafluoroborate] + CC(C)CO
Details | mass density [kg/m3] | viscosity [mPa·s]
293.15 K, x1 = 0.3101 | 989.53 | 18.26
293.15 K, x1 = 0.4279 | 1031.42 | 26.88
293.15 K, x1 = 0.5606 | 1068.28 | 49.75
293.15 K, x1 = 0.6901 | 1097.67 | 84.38
293.15 K, x1 = 0.8327 | 1123.89 | 138.81
293.15 K, x1 = 1 | 1149.05 | 234.68
298.15 K, x1 = 0.3101 | 985.83 | 15.47
298.15 K, x1 = 0.4279 | 1027.83 | 23.01
298.15 K, x1 = 0.5606 | 1064.75 | 37.72
298.15 K, x1 = 0.6901 | 1094.14 | 66.81
298.15 K, x1 = 0.8327 | 1120.44 | 107.94
298.15 K, x1 = 1 | 1145.61 | 178.92
303.15 K, x1 = 0.1004 | 870.1 | 5.95
303.15 K, x1 = 0.151 | 902.53 | 7.454
303.15 K, x1 = 0.2009 | 931.08 | 8.374
303.15 K, x1 = 0.3101 | 982.2 | 12.94
303.15 K, x1 = 0.4279 | 1024.31 | 18.9
303.15 K, x1 = 0.5606 | 1061.3 | 32.1
303.15 K, x1 = 0.6901 | 1090.76 | 53.77
303.15 K, x1 = 0.8327 | 1117.15 | 84.55
303.15 K, x1 = 1 | 1142.3 | 136.15
308.15 K, x1 = 0.1004 | 866.28 | 4.975
308.15 K, x1 = 0.151 | 898.71 | 6.339
308.15 K, x1 = 0.2009 | 927.23 | 7.116
308.15 K, x1 = 0.3101 | 978.63 | 10.74
308.15 K, x1 = 0.4279 | 1020.8 | 15.81
308.15 K, x1 = 0.5606 | 1057.79 | 25.74
308.15 K, x1 = 0.6901 | 1087.32 | 45.36
308.15 K, x1 = 0.8327 | 1113.75 | 67.62
308.15 K, x1 = 1 | 1138.95 | 106.65
313.15 K, x1 = 0.1004 | 862.42 | 4.108
313.15 K, x1 = 0.151 | 894.93 | 5.202
313.15 K, x1 = 0.2009 | 923.74 | 6.184
313.15 K, x1 = 0.3101 | 975.11 | 9.102
313.15 K, x1 = 0.4279 | 1017.21 | 13.43
313.15 K, x1 = 0.5606 | 1054.27 | 21.67
313.15 K, x1 = 0.6901 | 1083.88 | 37.52
313.15 K, x1 = 0.8327 | 1110.33 | 52.79
313.15 K, x1 = 1 | 1135.59 | 83.13
318.15 K, x1 = 0.1004 | 858.54 | 3.188
318.15 K, x1 = 0.151 | 891.18 | 4.388
318.15 K, x1 = 0.2009 | 920.15 | 5.281
318.15 K, x1 = 0.3101 | 971.5 | 7.758
318.15 K, x1 = 0.4279 | 1013.64 | 11.45
318.15 K, x1 = 0.5606 | 1050.78 | 18.8
318.15 K, x1 = 0.6901 | 1080.45 | 31.4
318.15 K, x1 = 0.8327 | 1106.94 | 45.07
318.15 K, x1 = 1 | 1132.22 | 69.13
323.15 K, x1 = 0.1004 | 854.62 | 2.993
323.15 K, x1 = 0.151 | 887.3 | 3.765
323.15 K, x1 = 0.2009 | 916.37 | 4.555
323.15 K, x1 = 0.3101 | 967.87 | 6.719
323.15 K, x1 = 0.4279 | 1010.02 | 9.919
323.15 K, x1 = 0.5606 | 1047.3 | 15.64
323.15 K, x1 = 0.6901 | 1077.03 | 26.31
323.15 K, x1 = 0.8327 | 1103.61 | 36.01
323.15 K, x1 = 1 | 1128.88 | 56.74
328.15 K, x1 = 0.1004 | 850.65 | 2.586
328.15 K, x1 = 0.151 | 883.51 | 3.266
328.15 K, x1 = 0.2009 | 912.52 | 3.949
328.15 K, x1 = 0.3101 | 964.12 | 5.855
328.15 K, x1 = 0.4279 | 1006.35 | 8.616
328.15 K, x1 = 0.5606 | 1043.79 | 13.62
328.15 K, x1 = 0.6901 | 1073.6 | 21.88
328.15 K, x1 = 0.8327 | 1100.2 | 29.92
328.15 K, x1 = 1 | 1125.5 | 48.36
333.15 K, x1 = 0.1004 | 846.65 | 2.21
333.15 K, x1 = 0.151 | 879.73 | 2.847
333.15 K, x1 = 0.2009 | 908.64 | 3.475
333.15 K, x1 = 0.3101 | 960.36 | 5.18
333.15 K, x1 = 0.4279 | 1002.74 | 7.6
333.15 K, x1 = 0.5606 | 1040.26 | 11.92
333.15 K, x1 = 0.6901 | 1070.21 | 18.98
333.15 K, x1 = 0.8327 | 1096.86 | 26.84
333.15 K, x1 = 1 | 1122.14 | 43.01
338.15 K, x1 = 0.1004 | 842.59 | 1.853
338.15 K, x1 = 0.151 | 875.79 | 2.526
338.15 K, x1 = 0.2009 | 904.74 | 3.056
338.15 K, x1 = 0.3101 | 956.56 | 4.566
338.15 K, x1 = 0.4279 | 999.08 | 6.374
338.15 K, x1 = 0.5606 | 1036.78 | 10.1
338.15 K, x1 = 0.6901 | 1066.82 | 15.78
338.15 K, x1 = 0.8327 | 1093.56 | 23.43
338.15 K, x1 = 1 | 1118.8 | 37.15
